The target of the assay is T1, PI3Kα (p110α/p85α) (Homo sapiens, UniProt P42336).
T1 construct: purchased BPS Bioscience (San Diego, Calif.) or Millipore (Billerica, Mass.)
T1 sequence (P42336 whole entry): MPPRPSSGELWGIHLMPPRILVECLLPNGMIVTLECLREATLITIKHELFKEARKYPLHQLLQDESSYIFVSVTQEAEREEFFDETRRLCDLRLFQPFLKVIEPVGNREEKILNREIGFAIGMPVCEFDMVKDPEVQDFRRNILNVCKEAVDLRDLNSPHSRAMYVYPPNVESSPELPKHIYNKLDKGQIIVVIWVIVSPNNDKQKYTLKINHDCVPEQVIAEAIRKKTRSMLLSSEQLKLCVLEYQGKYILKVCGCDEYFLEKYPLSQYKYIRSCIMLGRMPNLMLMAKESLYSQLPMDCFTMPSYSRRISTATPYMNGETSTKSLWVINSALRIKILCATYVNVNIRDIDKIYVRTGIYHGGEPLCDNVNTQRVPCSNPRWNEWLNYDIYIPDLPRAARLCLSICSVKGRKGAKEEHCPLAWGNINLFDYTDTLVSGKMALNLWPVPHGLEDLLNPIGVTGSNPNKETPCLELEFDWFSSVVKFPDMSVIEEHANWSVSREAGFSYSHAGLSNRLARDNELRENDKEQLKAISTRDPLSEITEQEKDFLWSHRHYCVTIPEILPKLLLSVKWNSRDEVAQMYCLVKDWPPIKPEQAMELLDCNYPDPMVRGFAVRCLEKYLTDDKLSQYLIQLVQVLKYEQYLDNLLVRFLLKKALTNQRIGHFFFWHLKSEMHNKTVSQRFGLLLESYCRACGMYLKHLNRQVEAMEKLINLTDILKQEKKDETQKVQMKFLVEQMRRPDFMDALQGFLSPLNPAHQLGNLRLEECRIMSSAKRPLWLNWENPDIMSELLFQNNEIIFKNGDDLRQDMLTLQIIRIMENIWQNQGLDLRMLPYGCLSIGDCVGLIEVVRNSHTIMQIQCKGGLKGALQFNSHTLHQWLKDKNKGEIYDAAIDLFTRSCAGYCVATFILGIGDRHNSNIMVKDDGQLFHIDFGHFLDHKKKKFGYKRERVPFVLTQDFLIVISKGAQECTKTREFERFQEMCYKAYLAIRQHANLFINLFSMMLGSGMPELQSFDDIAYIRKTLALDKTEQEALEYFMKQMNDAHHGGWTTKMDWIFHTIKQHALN
T1 sequence (P27986 whole entry partner): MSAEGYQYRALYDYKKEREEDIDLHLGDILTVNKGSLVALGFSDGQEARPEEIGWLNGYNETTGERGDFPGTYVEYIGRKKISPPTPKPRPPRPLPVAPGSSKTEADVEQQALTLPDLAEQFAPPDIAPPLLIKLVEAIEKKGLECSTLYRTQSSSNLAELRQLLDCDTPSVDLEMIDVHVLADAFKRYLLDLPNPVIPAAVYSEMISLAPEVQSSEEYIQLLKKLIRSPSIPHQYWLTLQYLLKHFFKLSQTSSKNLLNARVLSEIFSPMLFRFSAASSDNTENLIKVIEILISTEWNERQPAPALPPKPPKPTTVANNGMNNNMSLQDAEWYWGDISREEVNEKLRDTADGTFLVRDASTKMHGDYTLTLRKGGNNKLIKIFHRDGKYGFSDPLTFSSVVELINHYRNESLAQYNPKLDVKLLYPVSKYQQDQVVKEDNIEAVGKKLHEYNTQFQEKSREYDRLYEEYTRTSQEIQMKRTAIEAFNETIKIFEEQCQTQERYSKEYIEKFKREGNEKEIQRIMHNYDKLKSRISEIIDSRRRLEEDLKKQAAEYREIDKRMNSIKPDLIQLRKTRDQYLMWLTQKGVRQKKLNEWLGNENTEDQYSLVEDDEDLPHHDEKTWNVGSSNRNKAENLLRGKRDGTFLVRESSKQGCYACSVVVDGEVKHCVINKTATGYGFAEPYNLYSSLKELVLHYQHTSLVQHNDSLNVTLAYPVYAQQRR
Put plainly: HTRF assay, potency against active PI3Kα. Type of assay: biochemical. The conditions noted are these: HTRF; [ATP]=50 μM, [di-C8-PIP2]=10 μM; 30 min pre-incubation; read-out: PI3Kα Inhibition. The gist of the method: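 Active p110/p85α lipid kinase reactions were started with ATP and run 30-60 minutes at 25 °C, then stopped and developed with HTRF detection mix. HTRF ratio converted to % inhibition against ±enzyme controls; IC50 from log[inhibitor] vs response, variable slope.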
Take `CC(C)=CC(=O)CCC(=O)N1CCN(Cc2cc3nc(-c4cnc(N)nc4)cc(N4CCOCC4)c3s2)CC1` [II-g-7, 1-(4-((5-(2-aminopyrimidin-5-yl)-7-morpholinothieno[3,2-b]pyridin-2-yl)methyl)piperazin-1-yl)-6-methylhept-5-ene-1,4-dione]: the IC50 is 100 to 1000 nM. As to `C/C=C/C(=O)CCC(=O)N1CCc2cc(-c3cc4nc(-c5cccc(O)c5)nc(N5CCOCC5)c4s3)ccc2C1` [II-a-108, (E)-1-(6-(2-(3-hydroxyphenyl)-4-morpholinothieno[3,2-d]pyrimidin-6-yl)-3,4-dihydroisoquinolin-2(1H)-yl)hept-5-ene-1,4-dione], the IC50 was less than 10 nM. Consider `C/C=C/C(=O)CCC(=O)NCc1ccc(OC)c(-n2c(CSc3ncnc4[nH]cnc34)nc3cccc(Cl)c3c2=O)c1` [I-6, (E)-N-(3-(2-((9H-purin-6-ylthio)methyl)-5-chloro-4-oxoquinazolin-3(4H)-yl)-4-methoxybenzyl)-4-oxohept-5-enamide], for which the IC50 is greater than 1000 nM. For `C/C(=C\c1ccccn1)C(=O)CCC(=O)N1CCN(Cc2cc3nc(-c4cccc5[nH]ncc45)nc(N4CCOCC4)c3s2)CC1` [II-a-167, (E)-1-(4-((2-(1H-indazol-4-yl)-4-morpholinothieno[3,2-d]pyrimidin-6-yl)methyl)piperazin-1-yl)-5-methyl-6-(pyridin-2-yl)hex-5-ene-1,4-dione], the IC50 lay in the range of 100 to 1000 nM.

As for `C=CC(=O)N(C)CC(=O)N1CCC(n2nc(-c3ccc(OC)c(OC)c3)c3c(N)ncnc32)CC1` [XI-2, N-(2-(4-(4-amino-3-(3,4-dimethoxyphenyl)-1H-pyrazolo[3,4-d]pyrimidin-1-yl)piperidin-1-yl)-2-oxoethyl)-N-methylacrylamide], the IC50 was greater than 1000 nM.

For `CC(C)OC/C=C/C(=O)CCC(=O)N1CCN(Cc2cc3nc(-c4cccc5[nH]ncc45)nc(N4CCOCC4)c3s2)CC1` [II-a-62, (E)-1-(4-((2-(1H-indazol-4-yl)-4-morpholinothieno[3,2-d]pyrimidin-6-yl)methyl)piperazin-1-yl)-7-isopropoxyhept-5-ene-1,4-dione], the IC50 lay in the range of 10 to 100 nM. On to `C=CC(=O)N1CCN(Cc2cc3nc(-c4cccc5[nH]ncc45)nc(N4CCOCC4)c3s2)CC1` [II-a-2, 1-(4-((2-(1H-indazol-4-yl)-4-morpholinothieno[3,2-d]pyrimidin-6-yl)methyl)piperazin-1-yl)prop-2-en-1-one], for which the IC50 lay within 10 to 100 nM. In the case of `C=CC(=O)NC1CCN(c2ccc(-c3cc4nc(-c5cccc6[nH]ncc56)nc(N5CCOCC5)c4s3)cc2)CC1` [II-a-110, N-(1-(4-(2-(1H-indazol-4-yl)-4-morpholinothieno[3,2-d]pyrimidin-6-yl)phenyl)piperidin-4-yl)acrylamide], the IC50 was in the range of 100 to 1000 nM.

For the molecule `O=C(/C=C/c1cnc[nH]1)NCC12CCC(c3cc4nc(-c5cccc6[nH]ncc56)nc(N5CCOCC5)c4s3)(CC1)OC2` [II-a-177, (E)-N-((1-(2-(1H-indazol-4-yl)-4-morpholinothieno[3,2-d]pyrimidin-6-yl)-2-oxabicyclo[2.2.2]octan-4-yl)methyl)-3-(1H-imidazol-5-yl)acrylamide], the IC50 is 100 to 1000 nM. Regarding `COc1c(OCCNC(=O)CCC(=O)/C=C/c2ccccc2)ccc2c1N=C(NC(=O)c1cccnc1)N1CCN=C21` [IX-3, (E)-N-(7-methoxy-8-(2-(4-oxo-6-phenylhex-5-enamido)ethoxy)-2,3-dihydroimidazo[1,2-c]quinazolin-5-yl)nicotinamide], the IC50 is 10 to 100 nM. `C=CC(=O)NCC(=O)N1CCc2cc(-c3cc4nc(-c5cccc(O)c5)nc(N5CCOCC5)c4s3)ccc2C1` [II-a-121, N-(2-(6-(2-(3-hydroxyphenyl)-4-morpholinothieno[3,2-d]pyrimidin-6-yl)-3,4-dihydroisoquinolin-2(1H)-yl)-2-oxoethyl)acrylamide]: the IC50 lay in the range of 100 to 1000 nM. Regarding `C=CC(=O)N1CCN(c2ccc(-c3cc4nc(-c5cccc6[nH]ncc56)nc(N5CCOCC5)c4s3)cc2)CC1` [II-a-78, 1-(4-(4-(2-(1H-indazol-4-yl)-4-morpholinothieno[3,2-d]pyrimidin-6-yl)phenyl)piperazin-1-yl)prop-2-en-1-one], the IC50 fell in the range of 100 to 1000 nM.

`C/C=C/C(=O)CCC(=O)NC1CCN(c2ccc(-c3cc4nc(-c5cccc(O)c5)nc(N5CCOCC5)c4s3)cc2)CC1` [II-a-109, (E)-N-(1-(4-(2-(3-hydroxyphenyl)-4-morpholinothieno[3,2-d]pyrimidin-6-yl)phenyl)piperidin-4-yl)-4-oxohept-5-enamide]: the IC50 is less than 10 nM. With `CC(C)=CC(=O)CCC(=O)N1CC=C(c2cc3nc(-c4cnc(N)nc4)nc(N4CCOCC4)c3s2)CC1` [II-a-165, 1-(4-(2-(2-aminopyrimidin-5-yl)-4-morpholinothieno[3,2-d]pyrimidin-6-yl)-5,6-dihydropyridin-1(2H)-yl)-6-methylhept-5-ene-1,4-dione] the figure was 10 to 100 nM. Consider `C/C=C/C(=O)CCC(=O)NCc1cccc(-c2cc3nc(-c4cccc(O)c4)nc(N4CCOCC4)c3s2)c1` [II-a-79, (E)-N-(3-(2-(3-hydroxyphenyl)-4-morpholinothieno[3,2-d]pyrimidin-6-yl)benzyl)-4-oxohept-5-enamide], for which the IC50 is less than 10 nM.

Take `C=CC(=O)Nc1ccc(CNC(=O)c2cc(-c3cccc4[nH]ncc34)nc(N3CCOCC3)c2)cc1` [XII-14, N-(4-acrylamidobenzyl)-2-(1H-indazol-4-yl)-6-morpholinoisonicotinamide]: the IC50 is greater than 1000 nM. In the case of `C=CC(=O)NCC(=O)N1CCCc2cccc(-c3cc4nc(-c5cccc(O)c5)nc(N5CCOCC5)c4s3)c21` [II-a-124, N-(2-(8-(2-(3-hydroxyphenyl)-4-morpholinothieno[3,2-d]pyrimidin-6-yl)-3,4-dihydroquinolin-1(2H)-yl)-2-oxoethyl)acrylamide], the IC50 was 100 to 1000 nM. With `C=CC(=O)Nc1ccc(CCNC(=O)c2cc(-c3cnc(N)nc3C)nc(N3CCOCC3)c2)cc1` [XII-16, N-(4-acrylamidophenethyl)-2-(2-amino-4-methylpyrimidin-5-yl)-6-morpholinoisonicotinamide] the figure was 100 to 1000 nM.

Consider `C=CC(=O)Nc1ccc(CCNC(=O)c2cc(-c3cccc4[nH]ncc34)nc(N3CCOCC3)c2)cc1` [XII-13, N-(4-acrylamidophenethyl)-2-(1H-indazol-4-yl)-6-morpholinoisonicotinamide], for which the IC50 is greater than 1000 nM. Consider `C=CC(=O)NCCC(=O)N1CCC[C@@H](n2nc(-c3cc4cc(O)ccc4[nH]3)c3c(N)ncnc32)C1` [XI-4, (R)—N-(3-(3-(4-amino-3-(5-hydroxy-1H-indol-2-yl)-1H-pyrazolo[3,4-d]pyrimidin-1-yl)piperidin-1-yl)-3-oxopropyl)acrylamide], for which the IC50 was greater than 1000 nM. For `C=C(C)C(=O)CCC(=O)N1CCC(O)(C#Cc2cc3nc(-c4cccc(O)c4)nc(N4CCOCC4)c3s2)CC1` [II-a-105, 1-(4-hydroxy-4-((2-(3-hydroxyphenyl)-4-morpholinothieno[3,2-d]pyrimidin-6-yl)ethynyl)piperidin-1-yl)-5-methylhex-5-ene-1,4-dione], the IC50 is less than 10 nM. Turning to `CC(C)=CC(=O)CCC(=O)N1CCN(c2ccc(-c3ccnc4ccc(/C=C5\SC(=O)NC5=O)cc34)cn2)CC1` [V-18, (Z)-5-((4-(6-(4-(6-methyl-4-oxohept-5-enoyl)piperazin-1-yl)pyridin-3-yl)quinolin-6-yl)methylene)thiazolidine-2,4-dione], the IC50 was less than 10 nM.

Source of the values: patent US20110230476A1, “PI3 KINASE INHIBITORS AND USES THEREOF” (AVILA THERAPEUTICS, INC., priority 2009, published 2011).
